The values that follow come from US20180291325A1, “IN VITRO PHARMACOKINETIC-PHARMACODYNAMIC DEVICE” (Merck Sharp & Dohme Corp., priority 2015, published 2018).

Molecules are shown by their SMILES.

Common to all, as to type: cell-based
Experiment [1] relates to HCV genotype 1B containing 5-2 cells. The experiment can be described thus: plate-based RNA content assay. Particulars: Hepatitis C virus; HCV genotype 1B 5-2 cells, plate-based RNA content assay (data not shown). How it is done:
The EC50 of Compound against HCV genotype 1B containing 5-2 cells was determined to be 0.7 nM in plate-based RNA content assays (data not shown). A dose escalation experiment in which HCV genotype 1B 5-2 cells were dosed QD over three days at 0.3×EC50, 1×EC50, 3×EC50 and 10×EC50 and a dose fractionation experiment in which cells were dosed QD, BID or TID to obtain a constant AUC of ˜16.8 nM were performed using the HulaCell system. Results of the reporter assays for the dose escalation experiment are shown in FIGS. 6A-B. The combined PK results of the dose escalation experiment area shown in FIG. 7.

The test system of experiment [2] is HCV genotype 1B (5-2) replicon cell line. As to the kind of experiment: HulaCell in vitro PK-PD PK driver experiments (dose escalation and dose fractionation; luciferase reporter and RT-PCR viral RNA). Particulars: adjusted to free fraction, Day 3. As for the experimental part: Three QD infusions of the HCV NS3/4 protease inhibitor, (1aR,5S,8S,10R,22aR)-N-[(1R,2S)-1-[(Cyclopropylsulfonamido)carbonyl]-2-ethenylcyclopropyl]-14-methoxy-5-(2-methylpropan-2-yl)-3,6-dioxo-1,1a,3,4,5,6,9,10,18,19,20,21,22,22a-tetradecahydro-8H-7,10-methanocyclopropa[18,19][1,10,3,6]dioxadiazacyclononadecino[11,12-b]quinoxaline-8-carboxamide (“Compound”; See U.S. Pat. No. 7,973,040) were tested in the Hula Cell using the in vitro PK-PD software program and PK was monitored by collecting samples at multiple time point during each infusion. In addition, microcarrier beads were also collected daily to measure changes in viral load by RT-PCR Taqman analysis of cell lysates.
A frozen vial of HCV genotype 1B replicon cells (5-2 cells which contain genotype 1B replicon and a Luciferase reporter) was thawed and seeded into one T-75 flask. At confluency, the flask was trypsinized and cells resuspended to 6×10^6 cells in 9.5 ml DMEM containing 10% FBS and 0.5 mg/ml G418 in a 50 ml LeviTube™. 0.5 ml of collagen-coated microcarrier bead slurry mixture (50% V/V) was added to the 9.5 ml of cells and attachment was performed using BioWiggler™ microcarrier loading program (RPM=60; 1 min mixing; 40 min settle (repeat 6x=4 hr total)). Continuous mixing at 60 rpm was performed overnight. The next morning, 30 ml of fresh media was added to the culture. The microcarriers and attached cells were allowed to settle before removing 30 ml of media with any unattached cells from the LeviTube™. Afterward, 30 ml of fresh media was added back to the LeviTube™ to make the final volume 40 ml. […]
PK/PD samples were collected on Day 0, Day 1, Day 2, and Day 3 directly from the 50 ml LeviTube™ at specified time points. […] Compound concentration in the PK samples was determined by Mass Spectroscopy analysis.
Samples for PD determination (viral load content by RT-PCR) were washed once with 1 ml PBS (w/out Mg^2+ and Ca^2+). […] Viral RNA content of the cells was determined by quantitative PCR. […]
In general terms: In a reporter assay the amount or activity of a reporter protein is the signal.

The test system is the same in experiment [3]. The experiment can be described thus: BelloCell in vitro PK-PD PK driver experiments. The conditions noted are these: adjusted to free fraction, Day 3. From the text: A 4-tube HulaCell system was validated by comparing the results for the Compound PK driver experiments, previously performed in the BelloCell® (data not shown), with the results obtained from dose escalation and dose fractionation studies performed using the HulaCell system.
Calculated PK Driver parameters from HulaCell experiments, compared to those determined in BelloCell experiments are shown in Table 1.
The Hula Cell was successfully used to determine the Maximum efficacy threshold values at Day 3 for Compound in the HCV genotype 1B (5-2) replicon cell line. The PK correlation curves were remarkably similar between the BelloCell® and Hula cell with the only noticeable differences being the prediction of the % T>EC50 and the AUC.

As for `C=C[C@@H]1C[C@]1(NC(=O)[C@@H]1C[C@@H]2CN1C(=O)[C@H](C(C)(C)C)NC(=O)O[C@@H]1C[C@H]1CCCCCc1nc3ccc(OC)cc3nc1O2)C(=O)NS(=O)(=O)C1CC1` [Compound, (1aR,5S,8S,10R,22aR)-N-[(1R,2S)-1-[(Cyclopropylsulfonamido)carbonyl]-2-ethenylcyclopropyl]-14-methoxy-5-(2-methylpropan-2-yl)-3,6-dioxo-1,1a,3,4,5,6,9,10,18,19,20,21,22,22a-tetradecahydro-8H-7,10-methanocyclopropa[18,19][1,10,3,6]dioxadiazacyclononadecino[11,12-b]quinoxaline-8-carboxamide], the EC50 in experiment [1] came to 0.7 nM. In experiment [2], the “Maximum Efficacy Threshold % T > EC50” value is not below 84%, the “Maximum Efficacy Threshold AUC0-24” value was not below 23.7 nM·h and the “Maximum Efficacy Threshold Cmin” value was not below 0.10 nM. Besides, in experiment [3], the “Maximum Efficacy Threshold % T > EC50” value is recorded as not below 50%, the “Maximum Efficacy Threshold AUC0-24” value was not below 8.4 nM·h and the “Maximum Efficacy Threshold Cmin” value is reported as not below 0.11 nM.

In general, EC50 refers to the concentration giving half of the maximal effect. Read a high EC50 as weaker potency.
